The test concerns the target T1, human serum albumin (HSA) (Homo sapiens, UniProt P02768).
T1 construct: gene ALB; serum albumin in HEPES pH 7.4
The test can be described thus: UV-Vis titration, Benesi-Hildebrand. It counts as binding. The settings on record: HEPES pH 7.4, 25 °C, DMSO < 1%. The source says:
UV-Vis titration, Benesi-Hildebrand on human serum albumin (HSA)

T1 sequence (P02768 25-609): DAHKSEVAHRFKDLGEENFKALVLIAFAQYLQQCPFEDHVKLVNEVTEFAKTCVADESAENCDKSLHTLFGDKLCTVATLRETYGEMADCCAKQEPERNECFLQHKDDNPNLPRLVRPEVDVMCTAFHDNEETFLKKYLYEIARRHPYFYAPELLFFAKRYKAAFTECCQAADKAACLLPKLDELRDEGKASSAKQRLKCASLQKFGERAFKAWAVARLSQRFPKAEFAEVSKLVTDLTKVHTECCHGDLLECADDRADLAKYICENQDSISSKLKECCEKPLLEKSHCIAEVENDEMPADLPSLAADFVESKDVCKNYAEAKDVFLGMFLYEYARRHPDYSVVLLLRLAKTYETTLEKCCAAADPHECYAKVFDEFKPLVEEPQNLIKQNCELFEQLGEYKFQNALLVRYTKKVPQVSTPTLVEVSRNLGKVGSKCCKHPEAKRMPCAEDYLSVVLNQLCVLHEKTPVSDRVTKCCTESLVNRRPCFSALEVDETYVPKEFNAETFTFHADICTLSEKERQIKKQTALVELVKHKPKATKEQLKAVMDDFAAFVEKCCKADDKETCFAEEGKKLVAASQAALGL

For the compound `CCN(CC)CCNc1cc(NN=C2CCCc3cc(OC)ccc32)ncn1` [L1], the “binding constant (Kb) to HSA” value is listed as 9.92 × 10^4 dm^3/mol.
Same read-out and setting: with `COc1ccc2c(c1)CCCC2=NNc1cc(NCCN(C)C)ncn1` [L2] the figure was 4.54 × 10^5 dm^3/mol.
With `COc1ccc2c(c1)CCCC2=NNc1cc(NCCCN(C)C)ncn1` [L4], the “binding constant (Kb)” value is on record as 6.82 × 10^4 dm^3/mol.

The record behind these values is PMC11507521, “Pyrimidine Derivatives as Selective COX-2 Inhibitors with Anti-Inflammatory and Antioxidant Properties” (International Journal of Molecular Sciences, 2024).
